Format in all cases: cell-based
For assay [1], the system named is ovarian (SKOV3) cell line. The assay is described as follows: Antiproliferative activity, SKOV3. The conditions noted are these: Homo sapiens, SK-OV-3.
The next assay deals with breast (MCF-7) cell line. The assay is described as follows: Antiproliferative activity, MCF-7. As to conditions: Homo sapiens, MCF7; MCF-7 breast cell line.
Assay [2] has as its system multi-drug resistant (MDR) cell line (NCI/ADR), over-expresses P-glycoprotein. Kind of assay: Antiproliferative activity, NCI/ADR. As to conditions: Homo sapiens, NCI/ADR-RES.
Assay [3] has as its system wide range of cell lines, including breast (MCF-7), ovarian (SKOV3) and MDR (NCI/ADR). Kind of assay: Antiproliferative assays over a series of cell lines (statements in words). The conditions noted are these: wide range of cell lines incl. MCF-7, SKOV3, NCI/ADR.

Regarding `CC/C=C\C(C)[C@H](OC(N)=O)[C@@H](C)[C@H](O)[C@@H](C)C/C(C)=C\[C@H](C)[C@@H](O)C(C)/C=C\c1ccc2oc(=O)ccc2c1` (single isomer, unassigned; (+)) [(+)-9], the values for the half-inhibitory concentration (IC50) (in assay [1]; in the assay with breast (MCF-7) cell line; in assay [2]) were 1800 nM, 1600 nM and 3300 nM, respectively. In assay [3], the “Antiproliferative activity in words” value is reported as “micromolar activity”.

On to `CC/C=C\C(C)[C@H](OC(N)=O)[C@@H](C)[C@H](O)[C@@H](C)C/C(C)=C\[C@H](C)[C@@H](O)C(C)/C=C\c1ccc2c(c1)N(C)C(=O)CO2` (single isomer, unassigned; (+)) [(+)-11], for which the IC50 was determined as 2400 nM in assay [1], 1600 nM in the assay with breast (MCF-7) cell line and 3200 nM in assay [2]. The “Antiproliferative activity in words” value in assay [3] was “micromolar activity”.

In the case of `C=C/C=C\C(C)[C@H](OC(N)=O)[C@@H](C)[C@H](O)[C@@H](C)C/C(C)=C\[C@H](C)[C@@H](O)C(C)/C=C\c1ccc2ccc(=O)oc2c1` (single isomer, unassigned; (+)) [(+)-6], the IC50 turned out to be 44 nM in assay [1], 12 nM in the assay with breast (MCF-7) cell line and 190 nM in assay [2]. The “Antiproliferative activity in words” value in assay [3] is on record as “nanomolar activity similar to (+)-discodermolide 1”.

Take `C=C/C=C\[C@H](C)[C@H](OC(N)=O)[C@@H](C)[C@H](O)[C@@H](C)C/C(C)=C\[C@H](C)[C@@H](O)[C@@H](C)/C=C\[C@@H](O)CC1OC(=O)[C@H](C)[C@@H](O)[C@H]1C` (single isomer, unassigned; (+)) [(+)-Discodermolide 1, (+)-discodermolide, reference compound]: the IC50 worked out at 25 nM in assay [1], 26 nM in the assay on breast (MCF-7) cell line and 260 nM in assay [2].

Take `CC/C=C\C(C)[C@H](OC(N)=O)[C@@H](C)[C@H](O)[C@@H](C)C/C(C)=C\[C@H](C)[C@@H](O)C(C)/C=C\c1ccc2ccc(=O)oc2c1` (single isomer, unassigned; (+)) [(+)-8]: the IC50 in assay [1] amounted to 35 nM; with breast (MCF-7) cell line it was 15 nM; in assay [2] it was 230 nM. Besides, the “Antiproliferative activity in words” value in assay [3] is “nanomolar activity equivalent to (+)-1 and (+)-6”.

Turning to `CC/C=C\C(C)[C@H](OC(N)=O)[C@@H](C)[C@H](O)[C@@H](C)C/C(C)=C\[C@H](C)[C@@H](O)C(C)/C=C\c1ccc2c(c1)NC(=O)CO2` (single isomer, unassigned; (-)) [(−)-10], the IC50 amounted to 790 nM in assay [1], 430 nM in the assay on breast (MCF-7) cell line and 840 nM in assay [2]. Further, the “Antiproliferative activity in words” value in assay [3] is “micromolar activity”.

For the molecule `CC/C=C\C(C)[C@H](OC(N)=O)[C@@H](C)[C@H](O)[C@@H](C)C/C(C)=C\[C@H](C)[C@@H](O)C(C)/C=C\c1ccc2c(c1)N(COC)C(=O)CO2` (single isomer, unassigned; (+)) [(+)-12], the IC50 in assay [1] turned out to be 2900 nM; in the assay on breast (MCF-7) cell line, 3000 nM; in assay [2], 4000 nM. The “Antiproliferative activity in words” value in assay [3] is reported as “micromolar activity”.

A word on the IC50: it is the concentration at which inhibition is half-maximal. Low values mean greater potency, high ones weaker potency.

For the origin of these results see patent US8193241B2, “Discodermolide analogues and methods of their use” (The Trustees Of The University Of Pennsylvania, priority 2007, dated 2012).
